Laboratory results published in a compilation of properties of binary mixtures (doi:10.1007/s10953-014-0137-8).

Assay: xn = mol fraction of the nth substance listed
Conditions: 101 kPa

CCCC[n+]1ccn(C)c1.F[B-](F)(F)F + O
Conditions | electrical conductivity [S/m] | speed of sound [m/s]
293.15 K, x2 = 0.0964 | – | 1580.4
293.15 K, x2 = 0.2639 | – | 1586.2
293.15 K, x2 = 0.3058 | 1 | –
293.15 K, x2 = 0.3901 | – | 1590.2
293.15 K, x2 = 0.4991 | 1.67 | –
293.15 K, x2 = 0.5121 | – | 1596.5
293.15 K, x2 = 0.6369 | – | 1601.7
293.15 K, x2 = 0.7002 | 3.02 | 1606.4
293.15 K, x2 = 0.7456 | – | 1608.6
293.15 K, x2 = 0.7866 | – | 1609.7
293.15 K, x2 = 0.9 | – | 1602.3
293.15 K, x2 = 0.9001 | 4.22 | –
293.15 K, x2 = 0.9252 | 4.41 | 1593.6
293.15 K, x2 = 0.9496 | 4.31 | 1581.6
293.15 K, x2 = 0.9744 | 3.76 | 1559.6
298.15 K, x2 = 0.1014 | 0.595 | –
298.15 K, x2 = 0.2639 | – | 1574.3
298.15 K, x2 = 0.3058 | 1.18 | –
298.15 K, x2 = 0.3901 | – | 1579.2
298.15 K, x2 = 0.4991 | 1.97 | –
298.15 K, x2 = 0.5121 | – | 1585.1
298.15 K, x2 = 0.6369 | – | 1591.6
298.15 K, x2 = 0.7002 | 3.41 | 1596.4
298.15 K, x2 = 0.7456 | – | 1598.6
298.15 K, x2 = 0.7866 | – | 1600.5
298.15 K, x2 = 0.9 | – | 1598.5
298.15 K, x2 = 0.9001 | 4.74 | –
298.15 K, x2 = 0.9252 | 5.3 | 1592.2
298.15 K, x2 = 0.9744 | 4.22 | 1564.4
303.15 K, x2 = 0.0964 | – | 1557.7
303.15 K, x2 = 0.1014 | 0.709 | –
303.15 K, x2 = 0.2639 | – | 1563
303.15 K, x2 = 0.3058 | 1.36 | –
303.15 K, x2 = 0.3901 | – | 1567.7
303.15 K, x2 = 0.4991 | 2.2 | –
303.15 K, x2 = 0.5121 | – | 1573.8
303.15 K, x2 = 0.6369 | – | 1581.8
303.15 K, x2 = 0.7002 | 3.97 | 1586.6
303.15 K, x2 = 0.7456 | – | 1590.2
303.15 K, x2 = 0.7866 | – | 1592.6
303.15 K, x2 = 0.8493 | 5.68 | 1595.5
303.15 K, x2 = 0.9001 | 5.67 | –
303.15 K, x2 = 0.9496 | 5.39 | 1582.7
303.15 K, x2 = 0.9744 | 4.9 | 1567.9
308.15 K, x2 = 0.0964 | – | 1545.7
308.15 K, x2 = 0.1014 | 0.848 | –
308.15 K, x2 = 0.2639 | – | 1551
308.15 K, x2 = 0.3058 | 1.51 | –
308.15 K, x2 = 0.3901 | – | 1556.3
308.15 K, x2 = 0.4991 | 2.51 | –
308.15 K, x2 = 0.5121 | – | 1561.8
308.15 K, x2 = 0.7866 | – | 1582.8
308.15 K, x2 = 0.8493 | 6.09 | 1587.5
308.15 K, x2 = 0.9 | – | 1588.3
308.15 K, x2 = 0.9001 | 6.39 | –
308.15 K, x2 = 0.9252 | 6.6 | 1586
308.15 K, x2 = 0.9496 | 6.32 | 1581.6
308.15 K, x2 = 0.9744 | 5.08 | 1570.2
313.15 K, x2 = 0.0964 | – | 1534.6
313.15 K, x2 = 0.2639 | – | 1539.6
313.15 K, x2 = 0.3058 | 1.76 | –
313.15 K, x2 = 0.3901 | – | 1544.9
313.15 K, x2 = 0.4991 | 2.79 | –
313.15 K, x2 = 0.5121 | – | 1550.6
313.15 K, x2 = 0.6369 | – | 1559
313.15 K, x2 = 0.7002 | 4.67 | 1565
313.15 K, x2 = 0.7456 | – | 1569.3
313.15 K, x2 = 0.7866 | – | 1573.2
313.15 K, x2 = 0.9 | – | 1582.1
313.15 K, x2 = 0.9001 | 6.94 | –
313.15 K, x2 = 0.9252 | 7.12 | 1581.6
313.15 K, x2 = 0.9496 | 6.65 | 1579.4
318.15 K, x2 = 0.1014 | 1.12 | –
318.15 K, x2 = 0.4991 | 3.1 | –
318.15 K, x2 = 0.5121 | – | 1539.3
318.15 K, x2 = 0.7002 | 5.29 | 1554
318.15 K, x2 = 0.7456 | – | 1558.4
318.15 K, x2 = 0.7866 | – | 1562
318.15 K, x2 = 0.8493 | 7.3 | 1570.2
318.15 K, x2 = 0.9001 | 7.66 | –
318.15 K, x2 = 0.9252 | 7.99 | 1576.4
318.15 K, x2 = 0.9496 | 7.34 | 1576.4
318.15 K, x2 = 0.9744 | 6.16 | 1571.6
323.15 K, x2 = 0.0964 | – | 1511.5
323.15 K, x2 = 0.1014 | 1.37 | –
323.15 K, x2 = 0.2639 | – | 1516.4
323.15 K, x2 = 0.3058 | 2.3 | –
323.15 K, x2 = 0.3901 | – | 1522.1
323.15 K, x2 = 0.4991 | 3.31 | –
323.15 K, x2 = 0.5121 | – | 1528
323.15 K, x2 = 0.6369 | – | 1534.5
323.15 K, x2 = 0.7002 | 5.74 | 1542.4
323.15 K, x2 = 0.7456 | – | 1546.8
323.15 K, x2 = 0.7866 | – | 1552.2
323.15 K, x2 = 0.9 | – | 1567.8
323.15 K, x2 = 0.9001 | 8.59 | –
323.15 K, x2 = 0.9252 | 8.71 | 1570.5
